Source: patent US10323018B2 (Millennium Pharmaceuticals, Inc., priority 2015, dated 2019)

Key:
hNAMPT protein = hNAMPT protein (Homo sapiens (Human), UniProt P43490); test: NAMPT enzyme assay (TR-FRET/HTRF with BodiPY ligand); format: binding; conditions: for inhibition at 1 µM: NAMPT inhibition at compound concentration 1 μM, read-out: Percent Inhibition; for IC50: NAMPT inhibition, IC50 range class
In short: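 Ligand displacement by TR-FRET: BodiPY emission (520 nm) over terbium (486 nm) after 320 nm excitation. Compound, BodiPY ligand, hNAMPT and anti-6His-Tb incubated 1 h at room temperature, dark, at pH 7.5. Percent inhibition computed versus DMSO; concentration-response curves fitted for IC50.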

PC3 cells = test: PC3 growth inhibition (Cell-titer glo, 72 hours); format: cell-based; conditions: Homo sapiens, PC-3, 72 h, read-out: Percent Viability, PC3 cells, compound concentration 1.667 μM, 72 hours
In short: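 After 72 h compound treatment in AIM serum-free medium (37 °C, 5% CO2), viability of overnight-plated PC3 cells (8×10^4 cells/ml, RPMI1640-maintained) is read by CellTiter-Glo luminescence versus DMSO. Curves give GI50, LD50 or single-concentration % remaining viability.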

Chain of hNAMPT protein (P43490 whole entry): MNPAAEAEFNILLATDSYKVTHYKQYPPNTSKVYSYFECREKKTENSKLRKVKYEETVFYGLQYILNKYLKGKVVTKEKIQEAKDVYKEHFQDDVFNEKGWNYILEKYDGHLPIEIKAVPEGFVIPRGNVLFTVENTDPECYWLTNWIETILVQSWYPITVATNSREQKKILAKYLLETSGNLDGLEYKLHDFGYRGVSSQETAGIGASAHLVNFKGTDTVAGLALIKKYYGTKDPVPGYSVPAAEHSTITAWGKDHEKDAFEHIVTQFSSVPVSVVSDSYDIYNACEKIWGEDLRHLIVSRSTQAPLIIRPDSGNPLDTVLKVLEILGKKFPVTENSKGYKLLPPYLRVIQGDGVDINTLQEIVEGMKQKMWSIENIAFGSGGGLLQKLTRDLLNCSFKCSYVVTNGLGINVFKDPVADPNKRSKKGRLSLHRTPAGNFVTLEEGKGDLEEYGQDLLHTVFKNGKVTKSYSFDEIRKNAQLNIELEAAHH

Compound	inhibition at 1 µM (hNAMPT protein) [%]	IC50 (hNAMPT protein) [nM]	viability at 1.667 µM (PC3 cells) [%]
CCOc1cc(-c2cccnc2OC)nc2cc(C(=O)NCc3nc4ccncc4[nH]3)ccc12 [Compound I-192, 4-ethoxy-N-(3H-imidazo[4,5-c]pyridin-2-ylmethyl)-2-(2-methoxypyridin-3-yl)quinoline-7-carboxamide]	100	< 10	3
CCOc1cc(-c2ccc(OC)nc2)nc2cc(C(=O)NCc3nc4cnccc4[nH]3)ccc12 [Compound I-193, 4-ethoxy-N-(1H-imidazo[4,5-c]pyridin-2-ylmethyl)-2-(6-methoxypyridin-3-yl)quinoline-7-carboxamide]	> 99	< 10	3
CCOc1cc(-c2ccnc(OC)c2)nc2cc(C(=O)NCc3nc4cnccc4[nH]3)ccc12 [Compound I-194, 4-ethoxy-N-(1H-imidazo[4,5-c]pyridin-2-ylmethyl)-2-(2-methoxypyridin-4-yl)quinoline-7-carboxamide]	100	< 10	3
CCOc1cc(-c2ccnc(OC)c2)nc2cc(C(=O)NCCc3cnn[nH]3)ccc12 [Compound I-195, 4-ethoxy-2-(2-methoxypyridin-4-yl)-N-[2-(1H-1,2,3-triazol-5-yl)ethyl]quinoline-7-carboxamide]	89	50 to 100	19
COc1cc(-c2nc(-c3ccc(F)cc3)nc3cc(C(=O)NCCCc4ncc[nH]4)ccc23)ccn1 [Compound I-196, 2-(4-fluorophenyl)-N-[3-(1H-imidazol-2-yl)propyl]-4-(2-methoxypyridin-4-yl)quinazoline-7-carboxamide]	100	< 10	1
COc1cc(-c2nc(-c3ccc(F)cc3)nc3cc(C(=O)NCCCc4nnc[nH]4)ccc23)ccn1 [Compound I-197, 2-(4-fluorophenyl)-4-(2-methoxypyridin-4-yl)-N-[3-(4H-1,2,4-triazol-3-yl)propyl]quinazoline-7-carboxamide]	97	10 to 50	3
CCOc1cc(-c2ccc(Cl)cc2)nc2cc(C(=O)NCCCc3nnc[nH]3)ccc12 [Compound I-198]	94	–	3
CCOc1cc(-c2cc(F)ccc2OC)nc2cc(C(=O)NCCCc3nnc[nH]3)ccc12 [Compound I-199, 4-ethoxy-2-(5-fluoro-2-methoxyphenyl)-N-[3-(4H-1,2,4-triazol-3-yl)propyl]quinoline-7-carboxamide]	100	10 to 50	2
CCOc1cc(-c2ccc(F)cc2)nc2cc(C(=O)NCCCc3c[nH]nc3C)ccc12 [Compound I-201, 4-ethoxy-2-(4-fluorophenyl)-N-[3-(3-methyl-1H-pyrazol-4-yl)propyl]quinoline-7-carboxamide]	98	< 10	3
CCOc1cc(-c2ccnc(C)c2)nc2cc(C(=O)NCCCc3nnc[nH]3)ccc12 [Compound I-202, 4-ethoxy-2-(2-methylpyridin-4-yl)-N-[3-(4H-1,2,4-triazol-3-yl)propyl]quinoline-7-carboxamide]	98	10 to 50	1
CCOc1cc(-c2ccc(F)cc2)nc2cc(C(=O)NCCc3n[nH]nc3C)ccc12 [Compound I-203, 4-ethoxy-2-(4-fluorophenyl)-N-[2-(5-methyl-2H-1,2,3-triazol-4-yl)ethyl]quinoline-7-carboxamide]	98	< 10	2
CCOc1cc(-c2ccc(F)cc2)nc2cc(C(=O)NCCCc3cc[nH]n3)ccc12 [Compound I-204, 4-ethoxy-2-(4-fluorophenyl)-N-[3-(1H-pyrazol-3-yl)propyl]quinoline-7-carboxamide]	100	< 10	2
CCOc1cc(-c2cn[nH]c2)nc2cc(C(=O)NCCCc3nnc[nH]3)ccc12 [Compound I-205, 4-ethoxy-2-(1H-pyrazol-4-yl)-N-[3-(4H-1,2,4-triazol-3-yl)propyl]quinoline-7-carboxamide]	63	> 100	4
CCOc1cc(-c2cnn(C)c2)nc2cc(C(=O)NCCCc3nnc[nH]3)ccc12 [Compound I-206, 4-ethoxy-2-(1-methyl-1H-pyrazol-4-yl)-N-[3-(4H-1,2,4-triazol-3-yl)propyl]quinoline-7-carboxamide]	66	> 100	2
CCOc1cc(-c2ccccc2)nc2cc(C(=O)NCCCc3nnc[nH]3)ccc12 [Compound I-207, 4-ethoxy-2-phenyl-N-[3-(4H-1,2,4-triazol-3-yl)propyl]quinoline-7-carboxamide]	96	10 to 50	2
CCOc1cc(-c2cncnc2)nc2cc(C(=O)NCCCc3nnc[nH]3)ccc12 [Compound I-208, 4-ethoxy-2-(pyrimidin-5-yl)-N-[3-(4H-1,2,4-triazol-3-yl)propyl]quinoline-7-carboxamide]	86	> 100	2
CCOc1cc(-c2cccnc2)nc2cc(C(=O)NCCCc3nnc[nH]3)ccc12 [Compound I-209, 4-ethoxy-2-(pyridin-3-yl)-N-[3-(4H-1,2,4-triazol-3-yl)propyl]quinoline-7-carboxamide]	92	50 to 100	1
CCOc1cc(-c2cncc(OC)c2)nc2cc(C(=O)NCCCc3nnc[nH]3)ccc12 [Compound I-210, 4-ethoxy-2-(5-methoxypyridin-3-yl)-N-[3-(4H-1,2,4-triazol-3-yl)propyl]quinoline-7-carboxamide]	94	10 to 50	1
CCOc1cc(-c2cnc(Cl)cc2C)nc2cc(C(=O)NCCCc3nnc[nH]3)ccc12 [Compound I-211, 2-(6-chloro-4-methylpyridin-3-yl)-4-ethoxy-N-[3-(4H-1,2,4-triazol-3-yl)propyl]quinoline-7-carboxamide]	50	> 100	3
CCOc1cc(-c2cnccc2OC)nc2cc(C(=O)NCCCc3nnc[nH]3)ccc12 [Compound I-212, 4-ethoxy-2-(4-methoxypyridin-3-yl)-N-[3-(4H-1,2,4-triazol-3-yl)propyl]quinoline-7-carboxamide]	69	> 100	2
CCOc1cc(-c2cccnc2C)nc2cc(C(=O)NCCCc3nnc[nH]3)ccc12 [Compound I-213, 4-ethoxy-2-(2-methylpyridin-3-yl)-N-[3-(4H-1,2,4-triazol-3-yl)propyl]quinoline-7-carboxamide]	87	> 100	1
CCOc1cc(-c2ccncc2)nc2cc(C(=O)NCCCc3nnc[nH]3)ccc12 [Compound I-214, 4-ethoxy-2-(pyridin-4-yl)-N-[3-(4H-1,2,4-triazol-3-yl)propyl]quinoline-7-carboxamide]	97	10 to 50	1
CCOc1cc(-c2cccc(C(F)(F)F)c2)nc2cc(C(=O)NCCCc3nnc[nH]3)ccc12 [Compound I-215, 4-ethoxy-N-[3-(4H-1,2,4-triazol-3-yl)propyl]-2-[3-(trifluoromethyl)phenyl]quinoline-7-carboxamide]	93	50 to 100	1
CCOc1cc(-c2cccc(OC(F)(F)F)c2)nc2cc(C(=O)NCCCc3nnc[nH]3)ccc12 [Compound I-216, 4-ethoxy-N-[3-(4H-1,2,4-triazol-3-yl)propyl]-2-[3-(trifluoromethoxy)phenyl]quinoline-7-carboxamide]	92	50 to 100	1
CCOc1cc(-c2ccc(C(F)(F)F)nc2)nc2cc(C(=O)NCCCc3nnc[nH]3)ccc12 [Compound I-217, 4-ethoxy-N-[3-(4H-1,2,4-triazol-3-yl)propyl]-2-[6-(trifluoromethyl)pyridin-3-yl]quinoline-7-carboxamide]	94	10 to 50	2
CCOc1cc(-c2ccnc(C(F)(F)F)c2)nc2cc(C(=O)NCCCc3nnc[nH]3)ccc12 [Compound I-218, 4-ethoxy-N-[3-(4H-1,2,4-triazol-3-yl)propyl]-2-[2-(trifluoromethyl)pyridin-4-yl]quinoline-7-carboxamide]	93	50 to 100	2
CCOc1cc(-c2ccc(F)cc2)nc2cc(C(=O)NCCCc3nnc(N)[nH]3)ccc12 [Compound I-220, N-[3-(5-amino-4H-1,2,4-triazol-3-yl)propyl]-4-ethoxy-2-(4-fluorophenyl)quinoline-7-carboxamide]	92	50 to 100	2
CCOc1cc(-c2ccc(F)cc2)nc2cc(C(=O)NCCc3nn[nH]n3)ccc12 [Compound I-221, 4-ethoxy-2-(4-fluorophenyl)-N-[2-(2H-tetrazol-5-yl)ethyl]quinoline-7-carboxamide]	53	> 100	89
CCOc1cc(-c2ccc(F)cc2)nc2cc(C(=O)N[C@H]3C[C@@H](c4nnc[nH]4)C3)ccc12 [Compound I-222, 4-ethoxy-2-(4-fluorophenyl)-N-[cis-3-(4H-1,2,4-triazol-3-yl)cyclobutyl]quinoline-7-carboxamide]	96	10 to 50	4
